Molecular target: Transcription factor Sp1 (Homo sapiens, UniProt P08047)
Test: Inhibition of human SP1 transfected in PC-3 cells by renilla luciferase reporter gene assay

Chain of Transcription factor Sp1 (P08047 whole entry): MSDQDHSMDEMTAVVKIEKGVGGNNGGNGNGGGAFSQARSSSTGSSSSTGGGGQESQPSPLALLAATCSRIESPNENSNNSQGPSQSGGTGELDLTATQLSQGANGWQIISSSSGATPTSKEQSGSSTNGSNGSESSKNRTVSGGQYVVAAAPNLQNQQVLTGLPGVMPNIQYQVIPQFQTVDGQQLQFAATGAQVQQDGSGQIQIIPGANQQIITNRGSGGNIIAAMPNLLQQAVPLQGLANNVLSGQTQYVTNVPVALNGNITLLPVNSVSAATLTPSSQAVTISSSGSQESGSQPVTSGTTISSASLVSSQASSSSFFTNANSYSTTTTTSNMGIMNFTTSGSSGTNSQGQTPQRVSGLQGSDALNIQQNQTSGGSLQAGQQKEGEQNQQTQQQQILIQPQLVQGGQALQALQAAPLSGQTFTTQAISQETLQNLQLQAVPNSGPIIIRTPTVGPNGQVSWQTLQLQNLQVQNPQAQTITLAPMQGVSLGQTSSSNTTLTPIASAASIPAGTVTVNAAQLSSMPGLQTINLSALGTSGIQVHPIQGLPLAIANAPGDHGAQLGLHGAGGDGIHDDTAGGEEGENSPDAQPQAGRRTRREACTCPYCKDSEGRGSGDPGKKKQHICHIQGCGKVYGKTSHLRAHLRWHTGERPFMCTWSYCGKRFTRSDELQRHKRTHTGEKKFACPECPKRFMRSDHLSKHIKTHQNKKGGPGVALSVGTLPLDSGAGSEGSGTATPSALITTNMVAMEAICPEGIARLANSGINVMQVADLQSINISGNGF

IC50: 8 nM
Structure (SMILES): COCC[n+]1c2c(n(Cc3cnccn3)c1C)C(=O)c1ccccc1C2=O [Sepantronium Bromide]
